From PMC5893361 (International Journal for Parasitology, 2018)
pKd: −log10 of the molar value. Where two headings read alike, the source gives them in different places.

Tests used:
BmVAL-1 = biological target: T1, BmVAL-1 (Brugia malayi, UniProt A0A0J9Y762); test: radioligand saturation binding, Q-sepharose adsorption
T1 construct: gene bma-scl-11.3; mature protein without 16-residue signal peptide, two vector-derived C-terminal residues; 206 residues; secreted from Nicotiana benthamiana; N-glycosylated at N52 and N138
T1 sequence (A0A0J9Y762 entry or part of it): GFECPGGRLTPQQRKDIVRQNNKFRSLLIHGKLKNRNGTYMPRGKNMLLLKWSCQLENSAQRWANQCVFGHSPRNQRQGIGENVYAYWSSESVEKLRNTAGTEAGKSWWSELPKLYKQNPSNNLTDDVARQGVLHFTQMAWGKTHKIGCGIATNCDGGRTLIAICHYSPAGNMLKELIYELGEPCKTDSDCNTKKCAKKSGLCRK

Pry1 = biological target: T2, Pry1 (Saccharomyces cerevisiae, UniProt P47032); test: as above
T2 construct: construct not described here (full length secreted protein or CAP domain)
T2 sequence (P47032 20-299): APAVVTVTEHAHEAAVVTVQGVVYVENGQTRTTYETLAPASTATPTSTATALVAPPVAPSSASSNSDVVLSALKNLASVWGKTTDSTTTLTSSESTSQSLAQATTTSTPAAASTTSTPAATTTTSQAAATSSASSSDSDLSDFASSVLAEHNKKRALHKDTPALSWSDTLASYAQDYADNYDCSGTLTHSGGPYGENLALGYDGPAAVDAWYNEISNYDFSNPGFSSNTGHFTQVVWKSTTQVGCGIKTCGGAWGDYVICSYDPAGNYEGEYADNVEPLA

`CC(C)CCC[C@@H](C)[C@H]1CC[C@H]2[C@@H]3CC=C4C[C@@H](O)CC[C@]4(C)[C@H]3CC[C@]12C` [cholesterol] was tested, and the pKd (BmVAL-1) was 6.00 and the pKd (Pry1) was 5.72.
With `CCCCCCCCCCCCCCCC(=O)O` [palmitate] the pKd (BmVAL-1; read-out: Kd) was 4.08.
